± gives the expanded uncertainty stated by the source.
How the values were obtained:
[1] = refractive index (other wavelength) (dimensionless); conditions: 100 kPa, Liquid, Wavelength=632.8 nm, minimum deviation angle technique
[2] = refractive index (other wavelength) (dimensionless); xn = mol fraction of the nth substance listed; conditions: 288.62 K; 100 kPa; Liquid; Wavelength=632.8 nm; minimum deviation angle technique; x2 = 0

| refractive index ([1]; 285.47 K) | refractive index ([1]; 286.4 K) | refractive index ([1]; 287.49 K) | refractive index ([1]; 288.44 K) | refractive index ([1]; 288.62 K) | refractive index ([1]; 289.45 K) | refractive index ([1]; 290.7 K) | refractive index ([1]; 291.77 K) | refractive index ([1]; 292.66 K) | refractive index ([1]; 293.89 K) | refractive index [2] | refractive index ([1]; 285.51 K) | refractive index ([1]; 286.56 K) | refractive index ([1]; 287.57 K) | refractive index ([1]; 288.6 K) | refractive index ([1]; 289.75 K) | refractive index ([1]; 290.67 K) | refractive index ([1]; 291.68 K) | refractive index ([1]; 292.74 K) | refractive index ([1]; 293.98 K) | SMILES |
| --- | --- | --- | --- | --- | --- | --- | --- | --- | --- | --- | --- | --- | --- | --- | --- | --- | --- | --- | --- | --- |
| 1.5293 ± 0.0003 | 1.5288 ± 0.0003 | 1.5283 ± 0.0003 | 1.5278 ± 0.0003 | 1.5277 ± 0.0003 | 1.5274 ± 0.0003 | 1.5268 ± 0.0003 | 1.5262 ± 0.0003 | 1.5258 ± 0.0003 | 1.5252 ± 0.0003 | – | – | – | – | – | – | – | – | – | – | N#Cc1ccccc1 [benzonitrile] |
| – | – | – | – | – | – | – | – | – | – | 1.4128 ± 0.0003 | – | – | – | – | – | – | – | – | – | CCCCCCCCCC [decane] + N#Cc1ccccc1 |
| – | – | – | – | 1.4128 ± 0.0003 | – | – | – | – | – | – | 1.4142 ± 0.0003 | 1.4137 ± 0.0003 | 1.4133 ± 0.0003 | 1.4128 ± 0.0003 | 1.4123 ± 0.0003 | 1.4119 ± 0.0003 | 1.4114 ± 0.0003 | 1.411 ± 0.0003 | 1.4104 ± 0.0003 | CCCCCCCCCC [decane] |

From the NIST ThermoML archive (doi:10.1016/j.jct.2019.03.035)
